Experimental data from patent US20070167631A1, “Novel herbicides” (priority 2003, published 2007).

Experiments:
Assay type in all cases: in vivo
Euphorbia = test: Post-emergence herbicidal action (Example B2); details: 250 g/ha, after about 18 days, rating scale 10=total damage, 0=no action
Text: (§1) Monocotyledonous and dicotyledonous test plants are cultivated in a greenhouse in standard soil in plastic pots and, at the 4- to 6-leaf stage, are sprayed with an aqueous suspension of the test compounds of formula I prepared from a 25% wettable powder (Example F3, b) according to WO 97/34485) or with an emulsion of the test compounds of formula I prepared from a 25% emulsifiable concentrate (Example F1, c) according to WO 97/34485), corresponding to concentrations of 125 and 250 g of active ingredient per hectare (500 litres of water per ha). The test plants are then grown on in the greenhouse under optimum conditions. After a test duration of about 18 days, the test is evaluated in accordance with a scale of eleven ratings (10=total damage, 0=no action). Ratings of from 10 to 7 (especially from 10 to 8) indicate very good to good herbicidal action.

Stellaria = test: Post-emergence herbicidal action (Example B2); details: 250 g/ha, after about 18 days, rating scale 10=total damage, 0=no action
Text: as §1

Chenopodium [1] = test: Post-emergence herbicidal action (Example B2); details: 250 g/ha, after about 18 days, rating scale 10=total damage, 0=no action
Text: as §1

Echinochloa [2] = test: Post-emergence herbicidal action (Example B2); details: 250 g/ha, after about 18 days, rating scale 10=total damage, 0=no action
Text: as §1

Panicum [3] = test: Post-emergence herbicidal action (Example B2); details: 250 g/ha, after about 18 days, rating scale 10=total damage, 0=no action
Text: as §1

Amaranthus [4] = test: Post-emergence herbicidal action (Example B2); details: 250 g/ha, after about 18 days, rating scale 10=total damage, 0=no action
Text: as §1

Xanthium = test: Post-emergence herbicidal action (Example B2); details: 250 g/ha, after about 18 days, rating scale 10=total damage, 0=no action
Text: as §1

Scirpus = test: Pre-emergence herbicidal action (Example B1); details: 250 g/ha, after 4 weeks, rating scale 10=total damage, 0=no action
Procedure: (§2) Monocotyledonous and dicotyledonous test plants are sown in standard soil in pots or seed trays. Immediately after sowing, the test compounds, in the form of an aqueous suspension (prepared from a wettable powder (Example F3, b) according to WO 97/34485) or in the form of an emulsion (prepared from an emulsifiable concentrate (Example F1, c) according to WO 97/34485), are applied by spraying in a concentration of 250 g/ha. The test plants are then grown in a greenhouse under optimum conditions. After a test duration of 4 weeks, the test is evaluated in accordance with a scale of eleven ratings (10=total damage, 0=no action). Ratings of from 10 to 7 (especially from 10 to 8) indicate very good to good herbicidal action.

Chenopodium [5] = test: Pre-emergence herbicidal action (Example B1); details: 250 g/ha, after 4 weeks, rating scale 10=total damage, 0=no action
Procedure: as §2

Echinochloa [6] = test: Pre-emergence herbicidal action (Example B1); details: 250 g/ha, after 4 weeks, rating scale 10=total damage, 0=no action
Procedure: as §2

Panicum [7] = test: Pre-emergence herbicidal action (Example B1); details: 250 g/ha, after 4 weeks, rating scale 10=total damage, 0=no action
Procedure: as §2

Digitaria = test: Pre-emergence herbicidal action (Example B1); details: 250 g/ha, after 4 weeks, rating scale 10=total damage, 0=no action
Procedure: as §2

Abutilon = test: Pre-emergence herbicidal action (Example B1); details: 250 g/ha, after 4 weeks, rating scale 10=total damage, 0=no action
Procedure: as §2

Amaranthus [8] = test: Pre-emergence herbicidal action (Example B1); details: 250 g/ha, after 4 weeks, rating scale 10=total damage, 0=no action
Procedure: as §2

COCCOCc1nc(C(=O)C2=C(O)CCCC2=O)ccc1C(F)(F)F [Compound 1.126]
Post-emergence action: Euphorbia (Euphorbia): 8
Post-emergence action: Stellaria (Stellaria): 8
Post-emergence action: Chenopodium (Chenopodium [1]): 8
Post-emergence action: Echinochloa (Echinochloa [2]): 7
Post-emergence action: Panicum (Panicum [3]): 7
Post-emergence action: Amaranthus (Amaranthus [4]): 8
Post-emergence action: Xanthium (Xanthium): 8
Pre-emergence action: Scirpus (Scirpus): 8
Pre-emergence action: Chenopodium (Chenopodium [5]): 10
Pre-emergence action: Echinochloa (Echinochloa [6]): 2
Pre-emergence action: Panicum (Panicum [7]): 9
Pre-emergence action: Digitaria (Digitaria): 6
Pre-emergence action: Abutilon (Abutilon): 10
Pre-emergence action: Amaranthus (Amaranthus [8]): 10

CC1CN(c2nc(C(=O)C3=C(O)CCCC3=O)ccc2C(F)(F)F)CC(C)O1 (centres unmarked) [Compound 1.075]
Post-emergence action: Euphorbia (Euphorbia): 8
Post-emergence action: Stellaria (Stellaria): 8
Post-emergence action: Chenopodium (Chenopodium [1]): 10
Post-emergence action: Echinochloa (Echinochloa [2]): 8
Post-emergence action: Panicum (Panicum [3]): 10
Post-emergence action: Amaranthus (Amaranthus [4]): 10
Post-emergence action: Xanthium (Xanthium): 7
Pre-emergence action: Scirpus (Scirpus): 7
Pre-emergence action: Chenopodium (Chenopodium [5]): 9
Pre-emergence action: Echinochloa (Echinochloa [6]): 10
Pre-emergence action: Panicum (Panicum [7]): 10
Pre-emergence action: Digitaria (Digitaria): 10
Pre-emergence action: Abutilon (Abutilon): 9
Pre-emergence action: Amaranthus (Amaranthus [8]): 10

CC(=O)N(C)c1nc(C(=O)C2=C(O)C(C)(C)C(=O)C(C)(C)C2=O)ccc1C(F)(F)F [Compound 2.088]
Pre-emergence action: Scirpus (Scirpus): 0
Pre-emergence action: Chenopodium (Chenopodium [5]): 7
Pre-emergence action: Echinochloa (Echinochloa [6]): 7
Pre-emergence action: Panicum (Panicum [7]): 9
Pre-emergence action: Digitaria (Digitaria): 9
Pre-emergence action: Abutilon (Abutilon): 9

Cc1nc(C(=O)C2=C(O)C(C)(C)C(=O)C(C)(C)C2=O)ccc1C#N [Compound 2.209]
Post-emergence action: Euphorbia (Euphorbia): 8
Post-emergence action: Stellaria (Stellaria): 10
Post-emergence action: Chenopodium (Chenopodium [1]): 6
Post-emergence action: Echinochloa (Echinochloa [2]): 8
Post-emergence action: Panicum (Panicum [3]): 9
Post-emergence action: Amaranthus (Amaranthus [4]): 8
Post-emergence action: Xanthium (Xanthium): 9
Pre-emergence action: Scirpus (Scirpus): 2
Pre-emergence action: Chenopodium (Chenopodium [5]): 9
Pre-emergence action: Echinochloa (Echinochloa [6]): 10
Pre-emergence action: Panicum (Panicum [7]): 10
Pre-emergence action: Digitaria (Digitaria): 8
Pre-emergence action: Abutilon (Abutilon): 10
Pre-emergence action: Amaranthus (Amaranthus [8]): 9

CCC(=O)N(C)c1nc(C(=O)C2=C(O)C(C)(C)C(=O)C(C)(C)C2=O)ccc1C(F)(F)F [Compound 2.089]
Post-emergence action: Euphorbia (Euphorbia): 8
Post-emergence action: Stellaria (Stellaria): 8
Post-emergence action: Chenopodium (Chenopodium [1]): 9
Post-emergence action: Echinochloa (Echinochloa [2]): 7
Post-emergence action: Panicum (Panicum [3]): 8
Post-emergence action: Amaranthus (Amaranthus [4]): 0
Post-emergence action: Xanthium (Xanthium): 7
Pre-emergence action: Chenopodium (Chenopodium [5]): 0
Pre-emergence action: Echinochloa (Echinochloa [6]): 8
Pre-emergence action: Panicum (Panicum [7]): 9
Pre-emergence action: Digitaria (Digitaria): 8
Pre-emergence action: Abutilon (Abutilon): 9
Pre-emergence action: Amaranthus (Amaranthus [8]): 8

CC1CC(O)=C(C(=O)c2ccc(C(F)(F)F)c(N3CCOCC3)n2)C(=O)C1(C)C (centres unmarked) [Compound 3.073]
Post-emergence action: Euphorbia (Euphorbia): 7
Post-emergence action: Stellaria (Stellaria): 7
Post-emergence action: Chenopodium (Chenopodium [1]): 9
Post-emergence action: Echinochloa (Echinochloa [2]): 8
Post-emergence action: Panicum (Panicum [3]): 7
Post-emergence action: Amaranthus (Amaranthus [4]): 4
Post-emergence action: Xanthium (Xanthium): 7
Pre-emergence action: Scirpus (Scirpus): 7
Pre-emergence action: Chenopodium (Chenopodium [5]): 7
Pre-emergence action: Echinochloa (Echinochloa [6]): 7
Pre-emergence action: Panicum (Panicum [7]): 10
Pre-emergence action: Digitaria (Digitaria): 9
Pre-emergence action: Abutilon (Abutilon): 5
Pre-emergence action: Amaranthus (Amaranthus [8]): 0

O=C1CCCC(O)=C1C(=O)c1ccc(C(F)(F)F)c(N2CCSCC2)n1 [Compound 1.079]
Post-emergence action: Euphorbia (Euphorbia): 8
Post-emergence action: Stellaria (Stellaria): 10
Post-emergence action: Chenopodium (Chenopodium [1]): 10
Post-emergence action: Echinochloa (Echinochloa [2]): 7
Post-emergence action: Panicum (Panicum [3]): 3
Post-emergence action: Amaranthus (Amaranthus [4]): 8
Post-emergence action: Xanthium (Xanthium): 7
Pre-emergence action: Scirpus (Scirpus): 4
Pre-emergence action: Chenopodium (Chenopodium [5]): 9
Pre-emergence action: Echinochloa (Echinochloa [6]): 10
Pre-emergence action: Panicum (Panicum [7]): 10
Pre-emergence action: Digitaria (Digitaria): 10
Pre-emergence action: Abutilon (Abutilon): 10
Pre-emergence action: Amaranthus (Amaranthus [8]): 10
